The values below are quoted from earlier work in US20140323580A1, “P[…] DOSAGE FORM” (Pharmacorp CC, priority 2009, published 2014).

Structures are written as SMILES. Structures can show the parent of a compound that is named as a salt. Where two headings read alike, the source gives them in different places.

Regarding `CC(C)(N)Cc1ccccc1` [phentermine HCl], for the setting “HCl”, the solubility in alcohol result is listed as “very soluble”, the solubility in chloroform result is listed as “very soluble”, the solubility in ether entry was “insoluble” and the solubility in water result is listed as “very soluble”.

Take `CC(C)(N)Cc1ccccc1` [Phentermine, α,α-dimethyl phenethylamine (phenyl-tertiary-butylamine)]: the solubility in alcohol result is recorded as “soluble”, the solubility in chloroform entry was “soluble”, the solubility in ether result was “soluble” and the solubility in water result was “slightly soluble”.
